For data set [1], the system named is A549. The experiment in a line: Cytotoxicity assay (Alamar Blue, 72 h). The format is cell-based. To be noted: Homo sapiens, A549 (Lung). How it is done:
(§1) For cytotoxicity and cell cycle analysis, the following cell lines were used, and their culture conditions were as described: for A549, DU-145, HT-29, MDA-MB-231, Mia PaCa-2, and U118MG, cells were cultured in DMEM containing 10% FCS; for MDA- MB-435 and NCI-ADR-RES, cells were cultured in RPMI-1640 containing 10% FCS, and for SK-N-MC, cells were cultured in MEM containing 10% FCS. For the animal pharmacology study, HCT-116, a colon cancer cell line was tested. Cells were cultured in McCoy’s 5a medium supplemented with 10% heat inactivated fetal bovine serum. For the cell lines used in VM analysis and target identification, C8161 and COLO205 cells were maintained in RPMI-1640 containing 10% FBS and 0.1% gentamycin sulfate. The SKOV3 line was cultured in RPMI-1640 supplemented with 15% FBS and 0.1% gentamycin sulfate. For the SK-MEL28 and MCF-7, cells were maintained in MEM/Earles Salts supplemented with 10% FBS and 0.1% gentamycin sulfate.
(§2) This assay was conducted in ProQinase GmbH (Freiburg, Germany). Nine cancer cell lines (A549, DU-145, HT-29, MDA-MB-231, MDA-MB-435, Mia PaCa-2, NCI-ADR-RES, SK-N-MC, and U118MG) were seeded at 5,000 cells/well in 96-well cell culture plates in 150 µL of complete medium for 24 h prior to treatment. The test compounds CVM-1118 and CVM-1125 were synthesized by China Medical University, Chengdu Chempartner Co., Ltd., and Formosa Laboratories, Inc. To prepare the assay, the compounds were dissolved in 100% DMSO at a concentration of […]. Cells were then treated with vehicle, CVM-1118 or CVM-1125 at various concentrations for 72 h. Cell viability was determined by the fluorescent quantification of Alamar Blue (Invitrogen, Thermo Fisher Scientific). By the end of incubation, Alamar Blue reagent was added to the well for 4 h and the fluorescence was measured at 590 nm. The amount of fluorescence produced is proportional to the number of metabolically active cells. IC50 determination was performed using a variable slope sigmoidal response fitting model with 0% cell growth as a bottom constraint and 100% cell growth as a top constraint (GraphPad Prism, United States).
(The colour change of resazurin is a common sign of viable cells or microbes.)

Data set [2] relates to DU-145. The experiment in a line: Cytotoxicity assay (Alamar Blue, 72 h). Format: cell-based. To be noted: Homo sapiens, DU-145 (Prostate). The protocol: as §1, §2
For data set [3], the system named is HT-29. The experiment in a line: Cytotoxicity assay (Alamar Blue, 72 h). The format is cell-based. To be noted: Homo sapiens, HT-29 (Colon). How it is done:
as §1, §2

The test system of data set [4] is MDA-MB-231. The experiment in a line: Cytotoxicity assay (Alamar Blue, 72 h). The format is cell-based. The settings on record: Homo sapiens, MDA-MB-231 (Breast). The protocol: as §1, §2
In data set [5] the test system is MDA-MB-435. The experiment in a line: Cytotoxicity assay (Alamar Blue, 72 h). The format is cell-based. The settings on record: Homo sapiens, MDA-MB-435 (Melanoma). How it is done: as §1, §2
For data set [6], the system named is Mia PaCa-2. In words: Cytotoxicity assay (Alamar Blue, 72 h). The format is cell-based. To be noted: Homo sapiens, Mia PaCa-2 (Pancreatic). How it is done: as §1, §2
The test system of data set [7] is NCI-ADR-RES. The experiment in a line: Cytotoxicity assay (Alamar Blue, 72 h). The format is cell-based. To be noted: Homo sapiens, NCI-ADR-RES (Ovarian). The protocol:
as §1, §2

Data set [8] has as its system SK-N-MC. In words: Cytotoxicity assay (Alamar Blue, 72 h). The settings on record: Homo sapiens, SK-N-MC (Neuroblastoma). The format is cell-based. How it is done:
as §1, §2

The subject of data set [9] is U118MG. In words: Cytotoxicity assay (Alamar Blue, 72 h). Format: cell-based. To be noted: Homo sapiens, U-118-MG, U118MG (Glioma). The protocol: as §1, §2
Data set [10] concerns nine selected human cancer cell lines. In words: Cytotoxicity assay, panel of nine selected human cancer cell lines. Format: cell-based. To be noted: all nine cell lines of Table 1. How it is done:
as §2

Data set [11] can be described thus: Pharmacokinetic study of oral CVM-1118 in mouse (plasma, LC-MS/MS). The format is in vivo, male CD-1 mice. The settings on record: for AUC(0-inf) / AUC(0-t) / Cmax / MRT / Tmax / half-life: mouse, analyte in plasma after single oral CVM-1118 30 mg/kg in 9% NaHCO3, fasted male CD-1 mice; for half-life: read-out: T1/2 (terminal half-life) (converted). The protocol:
Supplementary Results on Pharmacokinetic study of oral CVM-1118 in Mouse Method: The pharmacokinetics of CVM-1118 and CVM-1125 were investigated in male CD-1 mice following a single oral administration of CVM-1118 at 30 mg/kg in 9% NaHCO3 in fasted mice. At pre-determined time points, plasma samples were collected and stored at -20°C prior to measurement of CVM-1118 and CVM-1125 concentrations using an LC-MS/MS method. The plasma samples were collected at 0, 0.25, 0.5, 1, 2, 4, 8, 12, 24 and 27 h after dosing with 3 mice per group at each time […]
Result: For single oral administration of 30 mg/kg CVM-1118 in 9% NaHCO3 solution, […]
from CVM-1118 to CVM-1125 occurred very rapidly.
1118 and CVM-1125. The drug exposure (AUC0-inf) of CVM-1118 was low (7 ng·h/mL), indicating rapid conversion to CVM-1125 following oral dosing (AUC0-inf of TRX-818M1 was 287 ng·h/mL). The terminal half-life of CVM-1118 and CVM-1125 were 0.7 h and 8.3 h, respectively. The oral bioavailability of CVM-1118 was low (~3%), […]
1118, was considered favorable.
Mean plasma concentrations-time curves of CVM-1118 and CVM-1125 following a single dose of CVM-1118 in male CD-1 mice
(1 picture or pasted object on this page, not shown here)

The test system of data set [12] is MCF7. In words: NCI 60 cytotoxicity screening. Format: cell-based. The settings on record: Homo sapiens; MCF7, Breast.

Take `COc1ccc2[nH]c(-c3cccc(F)c3)cc(=O)c2c1OP(=O)(O)O` [CVM-1118]: the IC50 (as a rule, the concentration that gives 50% inhibition) came to 26 nM in data set [1]; 21 nM in [2]; 15 nM in [3]; 18 nM in data set [4]; 4 nM in data set [5]; 11 nM in data set [6]. In addition, the IC50 in [7] was 14 nM; in data set [8] it was 9 nM; in data set [9], 10 nM; in [10] it was under 50 nM. For the same compound, the bioavailability – broadly, the share of a dose that reaches the circulation, judged against a reference dose that is usually intravenous – in data set [11] (male, CD-1, mouse, plasma, po, 30 mg/kg, single oral CVM-1118 30 mg/kg in 9% NaHCO3, fasted male CD-1 mice, read-out: F (oral bioavailability)) is about 3%. The AUC(0-inf) (as a rule, the area under the concentration-time curve extrapolated to infinity) in data set [11] was determined as 7 ng·h/mL. Besides, the AUC(0-t) (commonly exposure summed from dosing to a finite time, without extrapolation to infinity) in data set [11] came out at 7 ng·h/mL. For the same compound, in data set [11], the concentration peaked (Cmax) at 21 ng/mL. Also, in [11], the MRT (usually the average time that molecules of a dose stay in the body) was 36 min. The Tmax (commonly the time from dosing to the highest level) in [11] stood at 15 min. In addition, the half-life in [11] was 42 min. For the same compound, the “F (oral bioavailability)” value in data set [11] (single oral CVM-1118 30 mg/kg in 9% NaHCO3, fasted male CD-1 mice, 30 mg/kg) worked out at 2.96%.

`COc1ccc2[nH]c(-c3cccc(F)c3)cc(=O)c2c1O` [CVM-1125]: the IC50 in data set [1] stood at 29 nM; in [2], 27 nM; in [3], 17 nM; in data set [4], 14 nM; in data set [5] it was 5 nM; in data set [6], 7 nM. Also, the IC50 in data set [7] is 14 nM; in data set [8], 8 nM; in [9], 8 nM; in data set [10] it was under 50 nM. Besides, the GI50 (as a rule, the concentration at which growth is held to half of that of the control) in [12] is 29.9 nM. For the same compound, the AUC(0-inf) in data set [11] amounted to 287 ng·h/mL. Moreover, the AUC(0-t) in data set [11] is 279 ng·h/mL. Further, in data set [11], the Cmax (usually the peak of the concentration-time curve) amounted to 349 ng/mL. This compound also registered an MRT in data set [11] of 180 min. Besides, the Tmax in data set [11] stood at 15 min. Further, the half-life in data set [11] is 498 min.
